{"source": "patent EP1787658B1", "about": "“Sustained release formulations of somatostatin analogue inhibitors of growth hormone” (CHEMI S.p.A., priority 2005, dated 2012)", "test": "Plasma levels of somatostatin analogue after a single s.c. or i.m. administration, by LC/MS-MS", "type": "in vivo, rats", "details": "after both s.c. and i.m injection", "method": "Two groups of animals were treated with a single administration each s.c. and i.m, of 100µl of the formulation (3.37 mg of oligopeptide equal to 15mg/Kg). Blood samples from 5 animals per time point were collected at different time points up to 49 days after treatment. The plasma levels of somatostine analogue were determined by a LC/MS-MS method.\nMean plasma, levels and standard deviations for each time point are shown in the table below (Table 2) and in Figures 1 and 2.", "data": [{"compound": "C[C@@H](O)[C@@H]1NC(=O)[C@H](CCCCN)NC(=O)[C@@H](Cc2c[nH]c3ccccc23)NC(=O)[C@H](Cc2ccccc2)NC(=O)[C@@H](NC(=O)[C@H](N)Cc2ccccc2)CSSC[C@@H](C(=O)N[C@H](CO)[C@@H](C)O)NC1=O", "note": "[Octreotide acetate]", "values": [{"measurement": "presence of detectable levels of the oligopeptide", "result": "up to 49 days"}]}]}
